According to patent US20200046703A1, “COMPOSITIONS AND METHODS FOR TREATMENT OF THE SIDE-EFFECTS ASSOCIATED WITH ADMINISTRATION OF THERAPEUTIC AGENTS” (ASYMMETRIC THERAPEUTICS, LLC, priority 2018, published 2020):
“And” between values parts separate entries of the source, which are not always exact repeats. Equal values may be shown once.

Legend:
Format in all cases: cell-based, human
[1] = Proliferating HGEP cell viability with/without 5-FU; settings: human, proliferating HGEP cells; 10 μM of 5-FU; read-out: viability compared to a control system without 5-FU
Procedure: (§1) In one set of experiments, the results of which are shown in Table 1, proliferating HGEP cells, commonly used to assess oral mucosal toxicity, were exposed to the clinically-relevant dose of 10 μM of 5-FU and different concentrations of oxypurinol, either alone or with different concentrations of adenine or uracil, using standard tissue culture methods and incubated at 37° C. Oxypurinol concentrations of 0.03 mM, 0.1 mM, and 0.3 mM were tested. Adenine and uracil concentrations of 0.1 mM and 0.3 mM were tested. The relative viability of the cells was determined after 120 hours.

[2] = system: proliferating HGEP cells; test: as above; settings: 5-FU 10 μM alone; relative to control; 120 hours
Procedure: as §1

[3] = system: confluent NHEK cells; test: Confluent NHEK cell viability with/without 5-FU; settings: 5-FU 10 μM alone; relative to control; 120 hours
Procedure: (§2) In yet another set of experiments, the results of which are shown in Table 4, confluent NHEK cells were exposed to the clinically-relevant dose of 10 μM of 5-FU and different concentrations of sodium hydroxide, oxypurinol, or allopurinol using standard tissue culture methods and incubated at 37° C. Sodium hydroxide concentrations of 1 mM, 2 mM, 3 mM, and 4 mM were tested. Oxypurinol and allopurinol concentrations of 0.1 mM, 0.3 mM, 1.0 mM, and 3.0 mM were tested, both in the presence and in the absence of 10 μM of 5-FU. The relative viability of the cells was determined after 120 hours. The sodium hydroxide trials were only performed to serve as a control.

[4] = Confluent NHEK cell viability with/without 5-FU; settings: human, confluent NHEK cells; 10 μM of 5-FU; read-out: viability compared to a control system without 5-FU
Procedure: as §2

[5] = system: proliferating HPEK cells; test: Proliferating HPEK cell viability with/without 5-FU; settings: 5-FU 10 μM alone; relative to control; 120 hours
Procedure: as §1, with “In another” for “In one”, “Table 2,” for “Table 1,”, “proliferating HPEK” for “proliferating HGEP”, “assess skin tissue” for “assess oral mucosal”

[6] = as above; settings: human, proliferating HPEK cells; 10 μM of 5-FU; read-out: viability compared to a control system without 5-FU
Procedure: as §1, with “In another” for “In one”, “Table 2,” for “Table 1,”, “proliferating HPEK” for “proliferating HGEP”, “assess skin tissue” for “assess oral mucosal”

[7] = system: confluent HPEK cells; test: Confluent HPEK cell viability with/without 5-FU; settings: 5-FU 10 μM alone; relative to control; 120 hours
Procedure: (§3) Oxypurinol and allopurinol concentrations of 0.3 mM, 1.0 mM, and 3.0 mM, which are ten times higher than those used in the first set of experiments, were tested. An adenine concentration of 0.3 mM, which was the higher concentration used in the first set of experiments, was tested. The relative viability of the cells was determined after 120 hours.

[8] = Confluent HPEK cell viability with/without 5-FU; settings: human, confluent HPEK cells; 10 μM of 5-FU; read-out: viability compared to a control system without 5-FU
Procedure: as §3

SMILES: O=c1[nH]cc(F)c(=O)[nH]1 [5-FU, 5-fluorouracil, reference compound]
- viability at 120 h, 10 µM [1]: 62.2%
- relative cell viability (AVG) [2]: 0.6217
- relative cell viability (AVG) [3]: 0.42 and 0.4165
- viability at 120 h, 10 µM [4]: 41.6%
- relative cell viability (AVG) [5]: 0.6507
- viability at 120 h, 10 µM [6]: 65.1%
- relative cell viability (AVG) [7]: 0.64 and 0.6421
- viability at 120 h, 10 µM [8]: 65.1%
